The test system of series [1] is Plasmodium falciparum. The series can be described thus: Hit confirmation in dose-response curve in NF54 nanoGlo assay, at 72h. The class given is functional, organism-based, Erythrocyte. Set-up: timepoint 72 hour.
A short description of series [2]: Re-testing in dose-response curve in HepG2 cytotoxicity assay, at 72h. The class given is toxicity, cell-based. Set-up: timepoint 72 hour. The conditions noted are these: human, HepG2 cells.
In series [3] the test system is Plasmodium falciparum. The series can be described thus: Hit confirmation in dose-response curve in Dd2 pLDH assay, at 72h. The class given is functional, organism-based. Set-up: timepoint 72 hour. The conditions noted are these: Dd2, Erythrocyte.
Series [4] relates to Plasmodium falciparum. In words: Re-testing in dose-response curve in 3D7 pLDH assay, at 72h. The conditions noted are these: 3D7, Erythrocyte. The class given is functional, organism-based. Also noted: timepoint 72 hour.
The test system of series [5] is Plasmodium falciparum. The series can be described thus: Hit confirmation in dose-response curve in NF54 nanoGlo assay, at 12h. Set-up: timepoint 12 hour. The format is functional, organism-based, Erythrocyte.
In series [6] the test system is Plasmodium falciparum. The series can be described thus: Hit confirmation in dose-response curve in NF54 pLDH assay, at 72h. The class given is functional, organism-based. Set-up: timepoint 72 hour. The conditions noted are these: NF54, Erythrocyte.
Series [7] can be described thus: Hit confirmation in dose-response curve in HepG2 cytotoxicity assay, at 72h. Set-up: timepoint 72 hour. The class given is toxicity, cell-based. The conditions noted are these: human, HepG2 cells.
Setting [8] is: Plasmodium falciparum, NF54, Erythrocyte, 72 h.
[9] abbreviates: Plasmodium falciparum, NF54, Erythrocyte, 12 h.

These results are taken from ChEMBL document CHEMBL4888484, “Replenishing the malaria drug discovery pipeline: Screening and hit evaluation of the MMV Hit Generation Library 1 (HGL1) against asexual blood stage Plasmodium falciparum ,using a nano luciferase reporter read-out” (2022).

Some results are limits rather than exact numbers.

Regarding `CCn1cnc2c(N3CCC[C@H](c4ccncc4)C3)ncnc21`, the IC50 (in general, the concentration at which inhibition is half-maximal) came out at 1000 nM in series [1] (setting [8]); 708 nM in series [3]; 663 nM in series [4]; 8910 nM in series [5] (setting [9]); 794 nM in series [6]. Further, the IC50 at 72 h in series [2] was above 25000 nM; in series [7], above 10000 nM.
For `O=S(=O)(NC12CCCC1CNC2)c1onc(C2CC2)c1Cl` (configuration not stated), the IC50 is 891 nM in series [1] (setting [8]); 1150 nM in series [3]; 10500 nM in series [4]; 1620 nM in series [5] (setting [9]); 1480 nM in series [6]. Moreover, the IC50 at 72 h in series [2] is above 25000 nM; in series [7], above 10000 nM.
As for `O=C(Nc1cc(N2CCCS2(=O)=O)ccc1O)c1cccc(Oc2cccc(C(F)(F)F)c2)c1`, the IC50 in series [1] (setting [8]) was found to be 355 nM; in series [3], 537 nM; in series [4] it was 416 nM; in series [5] (setting [9]), 501 nM; in series [6], 1100 nM. Moreover, the IC50 at 72 h in series [2] was 20800 nM; in series [7], above 10000 nM.
On to `NC(=NCc1cccc2cccnc12)N1CCN(c2nccs2)CC1`, for which the IC50 was 1700 nM in series [1] (setting [8]); 501 nM in series [3]; 709 nM in series [4]; above 10000 nM in series [5] (setting [9]); 447 nM in series [6]. Moreover, the IC50 at 72 h in series [2] is above 25000 nM; in series [7], above 10000 nM.
Consider `COc1ccnc(CN2CCC[C@H](c3nc(-c4ccccc4)c[nH]3)C2)c1OC`, for which the IC50 in series [1] (setting [8]) amounted to 1450 nM; in series [3], 1700 nM; in series [4], 15600 nM; in series [5] (setting [9]), 4900 nM; in series [6], 1780 nM. Further, the IC50 at 72 h was 10200 nM in series [2] and above 10000 nM in series [7].
As to `CCN1CCN(c2cccc(NC(=O)c3ccc4[nH]c5ccccc5c(=O)c4c3)c2)CC1`, the IC50 is 955 nM in series [1] (setting [8]); 1170 nM in series [3]; around 459 nM in series [4]; 4790 nM in series [5] (setting [9]); 1700 nM in series [6]. For the same compound, the half-maximal inhibitory concentration (IC50) at 72 h was 7420 nM in series [2] and above 10000 nM in series [7].
`c1cc(N2CC[C@@]3(CCCNC3)C2)c2sccc2n1`: the IC50 in series [1] (setting [8]) is 479 nM; in series [3], 398 nM; in series [4], 580 nM; in series [5] (setting [9]), 617 nM; in series [6], 389 nM. The IC50 at 72 h in series [2] is above 14200 nM; in series [7], above 10000 nM.
For `COc1ccc([C@@H]2C=C(c3ccc(Cl)cc3)N=C3NC(NC(=O)c4ccccc4OC)=NN32)cc1`, the IC50 stood at 759 nM in series [1] (setting [8]); 1230 nM in series [3]; 6520 nM in series [4]; 1100 nM in series [5] (setting [9]); 2950 nM in series [6]. Besides, the results for the concentration for half-maximal inhibition (IC50) at 72 h in series [2] and in series [7] were above 25000 nM and above 10000 nM, respectively.
`O=C(Nc1cnc2ccccc2c1)c1ccccc1C(=O)c1ccc(F)cc1`: the IC50 in series [1] (setting [8]) turned out to be 490 nM; in series [3], 955 nM; in series [4], 1390 nM; in series [5] (setting [9]), 631 nM; in series [6] it was 2570 nM. In addition, the IC50 at 72 h in series [2] is above 25000 nM; in series [7] it was above 10000 nM.
In the case of `O=C(c1cscn1)N1CC[C@H](Oc2cccc(Cl)c2)C1`, the IC50 in series [1] (setting [8]) was 3980 nM; in series [3], 1950 nM; in series [4], 575 nM; in series [5] (setting [9]), above 10000 nM; in series [6], 6920 nM. Also, the results for the IC50 at 72 h in series [2] and in series [7] were above 25000 nM and above 10000 nM, respectively.
As to `CC(C)c1ccc(-c2nc(CN3CCCCC3)cc(CN3CCCCC3)c2O)cc1`, the IC50 in series [1] (erythrocyte) amounted to 813 nM; in series [3] it was 1230 nM; in series [4] it was 1130 nM; in series [5] (erythrocyte) it was 1170 nM; in series [6] it was 2400 nM. Also, the IC50 at 72 h was above 25000 nM in series [2] and above 10000 nM in series [7].
Take `CCOC(=O)c1c(CN2CCCC2)n(C)c2cc(-c3cccnc3)c(O)c(Cn3ccnc3)c12`: the IC50 was 145 nM in series [1] (setting [8]); 132 nM in series [3]; 3650 nM in series [4]; above 10000 nM in series [5] (setting [9]); 174 nM in series [6]. The IC50 at 72 h in series [2] is above 25000 nM; in series [7], above 10000 nM.
In the case of `CCc1nc2c(C(=O)N3CCOc4c(C)cc(C)cc43)ccnc2[nH]1`, the IC50 in series [1] (setting [8]) is 1410 nM; in series [3], 1290 nM; in series [4] it was 234 nM; in series [5] (setting [9]), above 10000 nM; in series [6] it was 4270 nM. The results for the half-maximal inhibitory concentration (IC50) at 72 h in series [2] and in series [7] were above 25000 nM and above 10000 nM, respectively.
As for `CN1CCCN(c2ccc(NC(=O)c3nn(-c4ccccc4)c(=O)c4ccccc34)cc2F)CC1`, the IC50 in series [1] (setting [8]) was 1380 nM; in series [3] it was 1910 nM; in series [4], 1150 nM; in series [5] (setting [9]), 2510 nM; in series [6], 2100 nM. In addition, the IC50 at 72 h is 7350 nM in series [2] and above 10000 nM in series [7].
For the compound `Oc1ccccc1-c1cnc(C(F)(F)F)s1`, the IC50 was 776 nM in series [1] (setting [8]); 1020 nM in series [3]; 5000 nM in series [4]; 1320 nM in series [5] (setting [9]); 1050 nM in series [6]. For the same compound, the IC50 at 72 h is 19400 nM in series [2] and above 10000 nM in series [7].
On to `COc1ccc(C(=O)N2c3ncnn3C(c3ccccc3)CC2c2ccc(C)cc2)cc1OC` (configuration not stated), for which the IC50 is 457 nM in series [1] (setting [8]); 741 nM in series [3]; 118 nM in series [4]; above 10000 nM in series [5] (setting [9]); 1170 nM in series [6]. The results for the IC50 at 72 h in series [2] and in series [7] were above 25000 nM and above 10000 nM, respectively.
In the case of `CC(C)c1ccc2ncnc(N[C@H]3CCc4[nH]cnc4C3)c2c1`, the IC50 in series [1] (setting [8]) is 589 nM; in series [3], 589 nM; in series [4] it was 534 nM; in series [5] (setting [9]), 2400 nM; in series [6] it was 1000 nM. The concentration for half-maximal inhibition (IC50) at 72 h was above 25000 nM in series [2] and above 10000 nM in series [7].
As to `C[C@H](N)c1ccc(Nc2ncc3cc(-c4ccncc4)ccc3n2)cc1`, the IC50 in series [1] (setting [8]) was 1100 nM; in series [3], 1200 nM; in series [4] it was 1050 nM; in series [5] (setting [9]), above 10000 nM; in series [6], 2690 nM. Besides, the IC50 at 72 h is 11400 nM in series [2] and above 10000 nM in series [7].
Regarding `CC(C)N(CC(=O)Nc1nccs1)Cc1ccccn1`, the IC50 in series [1] (setting [8]) was 692 nM; in series [3], 891 nM; in series [4] it was 9790 nM; in series [5] (setting [9]), above 10000 nM; in series [6] it was 1700 nM. Also, the IC50 at 72 h in series [2] was above 24800 nM; in series [7], above 10000 nM.
Consider `Cc1ccc2c(c1)CCCN2C(=O)CN1CC=C(c2cnn(C)c2)CC1`, for which the IC50 in series [1] (setting [8]) was 3720 nM; in series [3], 1740 nM; in series [4], 777 nM; in series [5] (setting [9]), above 10000 nM; in series [6] it was 3800 nM. Further, the results for the IC50 at 72 h in series [2] and in series [7] were above 25000 nM and above 10000 nM, respectively.
As for `COc1ccccc1C(=O)NC1=NN2C(=NC(c3ccc(Cl)cc3)=C[C@H]2c2ccc(Cl)cc2)N1`, the IC50 in series [1] (setting [8]) is 630 nM; in series [3] it was 1100 nM; in series [4] it was 4930 nM; in series [5] (setting [9]), 1070 nM; in series [6], 2750 nM. In addition, the IC50 at 72 h is above 25000 nM in series [2] and above 10000 nM in series [7].
